The text below walks through data of patent EP1960421B1, “NEW POLYPEPTIDES AND THEIR USE” (SEDERMA, priority 2005, dated 2007).

Peptide text beside a SMILES is read from it. * marks the point of attachment. Palmitoyl = CCCCCCCCCCCCCCCC(=O)*

This data set can be described thus: Solubility in the cell culture conditions (medium without foetal calf serum and few solvent). Type of data set: physicochemical. The conditions noted are these: cell culture medium without foetal calf serum and few solvent (DMSO 0.08%). As to the method: After 3 days of incubation, supernatants were collected and frozen. Survival was estimated on cell layer using a fluorescent probe. Collagen I was estimated using an original direct ELISA method. Results: TGF-b1 should be promoter of Collagen I synthesis. Statistical analysis were performed on Collagen I data (n=3 to n=5 / assay). Results obtained with molecules were compared to negative control. A Student t test for non paired values was used; significativity was obtained if p < 0.05 or p < 0.01. In our cell culture conditions (medium without foetal calf serum and few solvent), Pal-Gly-Lys-Thr-Thr-Lys-Ser was insoluble for concentrations > 5.4 ppm. Table 1: Effect of Pal-Gly-Lys-Thr-Thr-Lys-Ser (SEQ ID NO: 14) on NHDF's Collagen I. Results (from 4 independent experimentations) are in percent compared to the negative control.

`CCCCCCCCCCCCCCCC(=O)NCC(=O)N[C@@H](CCCCN)C(=O)N[C@H](C(=O)N[C@H](C(=O)N[C@@H](CCCCN)C(=O)N[C@@H](CO)C(=O)O)[C@@H](C)O)[C@@H](C)O` [N-Palmitoyl-Gly-Lys-Thr-Thr-Lys-Ser] (Palmitoyl-GKTTKS-OH): the insoluble for concentrations is given as over 5.4 ppm.
